{"source": "patent US20240415808A1", "about": "“Dosage Regimen for Fexuprazan Injection Composition” (Daewoong Pharmaceutical Co., Ltd., priority 2021, published 2024)", "key": {"[1]": {"tested_on": "indomethacin-induced bleeding gastric ulcer", "assay": "indomethacin-induced bleeding gastric ulcer model using male rats", "format": "in vivo, rat", "settings": "for Ulcer index (%): 30 min before indomethacin 80 mg/kg oral, autopsy 5 h; for Ulcer index (%) / Gastric erosion state / Gastric hemorrhage state: mean ± SD; for Gastric erosion state / Gastric hemorrhage state: histopathological examination", "protocol": "In order to evaluate the efficacy of fexuprazan against bleeding gastric ulcers, an indomethacin-induced bleeding gastric ulcer model using male rats was used.\nSpecifically, the previously prepared 1-(5-(2,4-difluorophenyl)-1-((3-fluorophenyl)sulfonyl)-4-methoxy-1H-pyrrol-3-yl)-N-methylmethanamine (hereinafter referred to as ‘fexuprazan’) hydrochloride was dissolved in a solution containing 30 wt. % of polyethylene glycol (Polyethylene Glycol 400) polymer in physiological saline. The concentration was adjusted so that 0, 0.1, 0.5, 1, 2 mg/kg based on fexuprazan weight could be administered to each test animal in a liquid volume of 1 mL/kg, and then each test animal was administered through the tail vein as a single dose. In addition, 1 mg/kg of esomeprazole magnesium trihydrate, which is a positive control, based on esomeprazole weight was administered as a single dose through the tail vein in test animals. After 30 minutes, 80 mg/kg of indomethacin was orally administered as a single dose to each test animal to induce gastric bleeding and ulceration. An autopsy was performed 5 hours after administration of indomethacin, and the stomach was removed. Then, the ulcer index (%) was measured using an image program (Leica Application Suite V4), and gastric hemorrhage and erosion state were evaluated through histopathological examination."}, "[2]": {"assay": "4-week repeated intravenous toxicity test, beagle dog", "format": "in vivo", "protocol": "The previously prepared fexuprazan hydrochloride was dissolved in a solution containing 30 wt. % of polyethylene glycol (Polyethylene Glycol 400) polymer in physiological saline, and the concentration was calculated based on fexuprazan weight so that it could be administered at a liquid volume of 5 mL/kg for rats and 2 mL/kg for beagle dogs to prepare each composition. Toxicity was evaluated by intravenously administering at doses of 0, 2.5, 5, and 10 mg/kg/day to rats and beagle dogs, respectively, once a day for 4 weeks."}, "[3]": {"tested_on": "acidity (pH) in the gastrointestinal tract", "assay": "single intravenous dose-escalation clinical trial, acidity (pH) in the gastrointestinal tract", "format": "in vivo, human", "settings": "healthy adults; for Fraction time pH ≥ 4 (%) / Fraction time pH ≥ 6 (%): 24 hours after medication", "protocol": "In order to confirm the safety/PK/PD of the compound of the present invention during intravenous administration, the clinical trial was designed with random assignment, double-blind, placebo-controlled, single dose, and stepwise dose-escalation in healthy adults (Korean/Chinese) between the ages of 19 and 50.\nA stabilizer (200 mg), a freeze-drying auxiliary agent (200 mg), and the previously prepared fexuprazan hydrochloride (40 mg based on fexuprazan weight) were dissolved in water for injection (4 mL), and an appropriate amount of acid was added thereto to adjust the pH to 4.0. The prepared solution was put into a vial, dried by a freeze-drying method, and prepared as a freeze-drying agent.\nThe freeze-dried composition prepared as above was used, but a total of 28 subjects of 4, 8, 8, and 8 subjects each were enrolled for four dose groups (10 mg, 20 mg, 40 mg, and 80 mg) based on fexuprazan weight, and each group was randomly assigned to test or control groups in the order that they passed the screening criteria at a ratio of 3:1. All test subjects completed safety, pharmacokinetic, and pharmacodynamic evaluations according to the planned clinical trial schedule.\nThe medication was performed in the morning, and the patient was discharged from the hospital on the third day of medication. Subsequently, a close-out visit was performed between the 8th and 11th day of medication.\n(§1) Testing of the acidity (pH) in the gastrointestinal tract and gastric secretion promoting hormone gastrin were performed from 24 hours before medication to 24 hours after medication. Blood collection for pharmacokinetics and urine collection for pharmacokinetics were performed for 48 hours from the time of medication."}, "[4]": {"assay": "oral vs intravenous two-way crossover clinical trial, pharmacokinetics / bioavailability", "format": "in vivo", "settings": "human, blood, healthy adults; for Cmax: n 8", "text": "(§2) Therefore, in order to compare the safety/PK/PD of the compound of the present invention during single intravenous administration and during single oral administration and derive the bioavailability, the clinical trial was designed as a randomized, open-label, single-dose, two-period, two-way crossover trial in healthy adults. The selection/exclusion criteria were the same as in Experimental Example 4. A total of 8 subjects were enrolled, and four subjects each were randomly assigned to sequence group 1 or sequence group 2 in the order in which they passed the screening criteria. All test subjects completed safety, pharmacokinetic, and pharmacodynamic evaluations according to the planned clinical trial schedule.\nA screening visit was performed 3 to 28 days before the start of the clinical trial, and hospital admission was performed 2 days before medication. The first phase medication was performed according to the order group randomly assigned on the morning of the day. A stabilizer (200 mg), a freeze-drying auxiliary agent (200 mg), and the previously prepared fexuprazan hydrochloride (40 mg based fexuprazan weight) were dissolved in water for injection (4 mL), an appropriate amount of acid was added thereto. A composition whose pH was adjusted to 4.0 was administered intravenously, or an excipient (100 mg), a disintegrant (5 mg), and the previously prepared fexuprazan hydrochloride (40 mg based on fexuprazan weight) were mixed and compressed to prepare a tablet, which were administered orally. The hospital discharge was performed on the third day of medication. The second phase medication was performed on the morning of the 8th after hospital admission on the 6th day after the first phase medication. Hospital discharge was performed on the 10th day of medication. Subsequently, a close-out visit was performed between 15 and 18 days after medication (FIG. 6).\nas §1"}, "[5]": {"assay": "oral vs intravenous two-way crossover clinical trial, safety", "format": "in vivo, human", "settings": "healthy adults, single 40 mg oral and 40 mg intravenous", "text": "as §2, §1"}, "[6]": {"settings": "0.1 mg/kg single dose tail vein"}, "[7]": {"settings": "0.5 mg/kg single dose tail vein"}, "[8]": {"settings": "intravenous administration (40 mg)"}}, "note": "Values joined by “and” are separate entries in the source; they are usually repeats but may differ in a detail not shown here. Equal entries are not always repeated.", "data": [{"molecule": "CNCc1cn(S(=O)(=O)c2cccc(F)c2)c(-c2ccc(F)cc2F)c1OC", "note": "[Fexuprazan, 1-(5-(2,4-difluorophenyl)-1-((3-fluorophenyl)sulfonyl)-4-methoxy-1H-pyrrol-3-yl)-N-methylmethanamine]", "values": [{"measurement": "Ulcer index (%)", "setting": "[1]; [6]", "value": "9.2 ± 2.3^ %"}, {"measurement": "Gastric erosion state", "setting": "[1]; [6]", "value": "2.9 ± 1.2"}, {"measurement": "Gastric hemorrhage state", "setting": "[1]; [6]", "value": "1.5 ± 1.6^"}, {"measurement": "Ulcer index (%)", "setting": "[1]; [7]", "value": "4.0 ± 1.8", "unit": "%"}, {"measurement": "Gastric erosion state", "setting": "[1]; [7]", "value": "1.3 ± 1.0"}, {"measurement": "Gastric hemorrhage state", "setting": "[1]; [7]", "value": "0.5 ± 0.8"}, {"measurement": "Ulcer index (%)", "setting": "[1]; 1 mg/kg single dose tail vein", "value": "4.2 ± 2.5", "unit": "%"}, {"measurement": "Gastric erosion state", "setting": "[1]; 1 mg/kg single dose tail vein", "value": "0.8 ± 0.7"}, {"measurement": "Gastric hemorrhage state", "setting": "[1]; 1 mg/kg single dose tail vein", "value": "0.3 ± 0.5"}, {"measurement": "Ulcer index (%)", "setting": "[1]; 2 mg/kg single dose tail vein", "value": "4.2 ± 1.5", "unit": "%"}, {"measurement": "Gastric erosion state", "setting": "[1]; 2 mg/kg single dose tail vein", "value": "0.3 ± 0.5"}, {"measurement": "Gastric hemorrhage state", "setting": "[1]; 2 mg/kg single dose tail vein", "value": "0.3 ± 0.5"}, {"measurement": "minimum effective dose", "setting": "[1]; single dose tail vein, ulcer index, gastric hemorrhage and erosion state vs excipient group", "value": 0.5, "unit": "mg/kg"}, {"measurement": "Result: harmless dose", "setting": "[2]; Beagle dog, 4 weeks, intravenous, doses 0, 2.5, 5, 10", "value": "harmless dose 10 mg/kg"}, {"measurement": "toxic symptoms due to the test substance", "setting": "[2]; beagle dogs, 2.5, 5, 10 mg/kg/day intravenous, 4 weeks", "value": "no toxic symptoms due to the test substance were observed in all administration groups"}, {"measurement": "harmless dose", "setting": "[2]; beagle dogs, intravenous once a day for 4 weeks", "value": 10, "unit": "mg/kg/day"}, {"measurement": "time during which the pH maintained above 6 for 12 hours", "setting": "[3]; intravenous administration of 40 mg, 12 hours", "value": "≥ 50", "unit": "%"}, {"measurement": "Mean pH", "setting": "[3]; single intravenous 10 mg", "value": "2.7 ± 0.1"}, {"measurement": "Median pH", "setting": "[3]; single intravenous 10 mg", "value": "2.1 ± 0.2"}, {"measurement": "Fraction time pH ≥ 4 (%)", "setting": "[3]; single intravenous 10 mg", "value": "20.4 ± 2.6", "unit": "%"}, {"measurement": "Fraction time pH ≥ 6 (%)", "setting": "[3]; single intravenous 10 mg", "value": "2.9 ± 2.0", "unit": "%"}, {"measurement": "Mean pH", "setting": "[3]; single intravenous 20 mg", "value": "3.9 ± 0.8"}, {"measurement": "Median pH", "setting": "[3]; single intravenous 20 mg", "value": "3.8 ± 1.3"}, {"measurement": "Fraction time pH ≥ 4 (%)", "setting": "[3]; single intravenous 20 mg", "value": "46.7% and 46.7 ± 19.0%"}, {"measurement": "Fraction time pH ≥ 6 (%)", "setting": "[3]; single intravenous 20 mg", "value": "16.7 ± 14.6", "unit": "%"}, {"measurement": "Mean pH", "setting": "[3]; single intravenous 40 mg", "value": "4.9 ± 0.3"}, {"measurement": "Median pH", "setting": "[3]; single intravenous 40 mg", "value": "5.4 ± 0.6"}, {"measurement": "Fraction time pH ≥ 4 (%)", "setting": "[3]; single intravenous 40 mg", "value": "71.0 ± 10.3", "unit": "%"}, {"measurement": "Fraction time pH ≥ 6 (%)", "setting": "[3]; single intravenous 40 mg", "value": "38.3 ± 9.0", "unit": "%"}, {"measurement": "Mean pH", "setting": "[3]; single intravenous 80 mg", "value": "5.9 ± 0.4"}, {"measurement": "Median pH", "setting": "[3]; single intravenous 80 mg", "value": "6.2 ± 0.3"}, {"measurement": "Fraction time pH ≥ 4 (%)", "setting": "[3]; single intravenous 80 mg", "value": "92.9 ± 4.8", "unit": "%"}, {"measurement": "Fraction time pH ≥ 6 (%)", "setting": "[3]; single intravenous 80 mg", "value": "59.65% and 59.7 ± 15.7%"}, {"measurement": "AUC(0-inf)", "setting": "[4]; [8]", "value": "1150 ± 279", "unit": "ng·h/mL"}, {"measurement": "AUC(0-t)", "setting": "[4]; [8]", "value": 1110, "unit": "ng·h/mL"}, {"measurement": "Tmax", "setting": "[4]; [8]", "value": 0.25, "unit": "h"}, {"measurement": "half-life", "setting": "[4]; [8]", "value": "9.53 ± 2.42", "unit": "h"}, {"measurement": "Cmax", "setting": "[4]; [8]", "value": 277, "unit": "ng/mL"}, {"measurement": "AUC(0-inf)", "setting": "[4]; oral administration (40 mg)", "value": "556 ± 299", "unit": "ng·h/mL"}, {"measurement": "AUC(0-t)", "setting": "[4]; oral administration (40 mg)", "value": 536, "unit": "ng·h/mL"}, {"measurement": "Tmax", "setting": "[4]; oral administration (40 mg)", "value": 2.09, "unit": "h"}, {"measurement": "half-life", "setting": "[4]; oral administration (40 mg)", "value": "9.38 ± 1.6", "unit": "h"}, {"measurement": "Cmax", "setting": "[4]; oral administration (40 mg) tablet", "value": 49.9, "unit": "ng/mL"}, {"measurement": "serious abnormalities or side effects", "setting": "[5]", "value": "no serious abnormalities or side effects were observed"}]}]}
